Measured values from US20240002397A1, “3-AMINO PYRROLIDINE AND PIPERIDINE MACROCYCLIC OREXIN RECEPTOR AGONISTS” (Merck Sharp & Dohme LLC, priority 2020, published 2024).

Biological target: T1, human OX2R (Homo sapiens, UniProt O43614)
T1 sequence (O43614 1-444): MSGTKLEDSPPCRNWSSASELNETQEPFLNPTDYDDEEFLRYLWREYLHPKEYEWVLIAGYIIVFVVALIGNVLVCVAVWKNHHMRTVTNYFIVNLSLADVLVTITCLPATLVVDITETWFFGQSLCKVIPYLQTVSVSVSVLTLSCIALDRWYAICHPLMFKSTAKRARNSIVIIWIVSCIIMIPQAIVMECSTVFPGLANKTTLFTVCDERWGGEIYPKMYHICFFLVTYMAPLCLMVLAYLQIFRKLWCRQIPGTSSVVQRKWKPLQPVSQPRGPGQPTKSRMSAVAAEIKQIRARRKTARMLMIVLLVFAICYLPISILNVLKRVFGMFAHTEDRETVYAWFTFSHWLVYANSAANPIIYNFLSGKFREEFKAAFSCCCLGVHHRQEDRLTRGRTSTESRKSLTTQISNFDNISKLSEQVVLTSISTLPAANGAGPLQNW
Assay: IPOne (IP-1) orexin receptor agonist assay in CHO cells expressing human OX2R
Conditions: CHO, hOX2R IP-One; percentage of mean max effect of a reference compound at 1 uM with 100% activity

| Emax [%] | SMILES |
| --- | --- |
| 98.2 | C[C@@H]1C[C@H](NS(C)(=O)=O)C2COC3CCC(CC3)c3ccc(F)c(n3)OCCOC(=O)N21 (some centres unmarked) [Example 56, N-((2^1S,2^4S,5^2R,5^3S,5^5R)-1^5-fluoro-5^5-methyl-6-oxo-3,7,10-trioxa-1(2,6)-pyridina-5(2,1)-pyrrolidina-2(1,4)-cyclohexanacyclodecaphane-5^3-yl)methanesulfonamide] |
| 102 | C[C@@H]1C[C@H](NS(C)(=O)=O)C2COC3CCC(CC3)c3ccc(F)c(n3)OCCCOC(=O)N21 (some centres unmarked) [Example 57, N-((2^1S,2^4S,5^2R,5^3S,5^5R)-1^5-fluoro-5^5-methyl-6-oxo-3,7,11-trioxa-1(2,6)-pyridina-5(2,1)-pyrrolidina-2(1,4)-cyclohexanacycloundecaphane-5^3-yl)methanesulfonamide] |
| 102 | C[C@@H]1C[C@H](NS(C)(=O)=O)C2COC3CCC(CC3)c3nc(ccc3OC(F)(F)F)OCCOC(=O)N21 (some centres unmarked) [Example 58, N-((2^1S,2^4S,5^2R,5^3S,5^5R)-5^5-methyl-6-oxo-1^3-(trifluoromethoxy)-3,7,10-trioxa-1(2,6)-pyridina-5(2,1)-pyrrolidina-2(1,4)-cyclohexanacyclodecaphane-5^3-yl)methanesulfonamide] |
| 96.9 | C[C@@H]1C[C@H](NS(C)(=O)=O)C2COC3CCC(CC3)c3nc(ccc3OC(F)(F)F)OCCCOC(=O)N21 (some centres unmarked) [Example 59, N-((2^1S,2^4S,5^2R,5^3S,5^5R)-5^5-methyl-6-oxo-1^3-(trifluoromethoxy)-3,7,11-trioxa-1(2,6)-pyridina-5(2,1)-pyrrolidina-2(1,4)-cyclohexanacycloundecaphane-5^3-yl)methanesulfonamide] |
| 91.2 | CC(C)Oc1ccc2cc1C1CCC(CC1)OCC1[C@@H](NS(C)(=O)=O)C[C@@H](C)N1C(=O)OCCO2 (some centres unmarked) [Example 62, N-((2^1S,2^4S,5^2R,5^3S,5^5R)-1^6-isopropoxy-5^5-methyl-6-oxo-3,7,10-trioxa-5(2,1)-pyrrolidina-1(1,3)-benzena-2(1,4)-cyclohexanacyclodecaphane-5^3-yl)methanesulfonamide] |
| 93.1 | CC(C)Oc1ccc2cc1C1CCC(CC1)OCC1[C@@H](NS(C)(=O)=O)C[C@@H](C)N1C(=O)OCCCO2 (some centres unmarked) [Example 63, N-((2^1S,2^4S,5^2R,5^3S,5^5R)-1^6-isopropoxy-5^5-methyl-6-oxo-3,7,11-trioxa-5(2,1)-pyrrolidina-1(1,3)-benzena-2(1,4)-cyclohexanacycloundecaphane-5^3-yl)methanesulfonamide] |
| 102 | C[C@@H]1C[C@H](NS(C)(=O)=O)C2COC3CCC(CC3)c3ccc(C(F)(F)F)c(n3)OCCOC(=O)N21 (some centres unmarked) [Example 64, N-((2^1S,2^4S,5^2R,5^3S,5^5R)-5^5-methyl-6-oxo-1^5-(trifluoromethyl)-3,7,10-trioxa-1(2,6)-pyridina-5(2,1)-pyrrolidina-2(1,4)-cyclohexanacyclodecaphane-5^3-yl)methanesulfonamide] |
| 103 | C[C@@H]1C[C@H](NS(C)(=O)=O)C2COC3CCC(CC3)c3ccc(C(F)(F)F)c(n3)OCCCOC(=O)N21 (some centres unmarked) [Example 65, N-((2^1S,2^4S,5^2R,5^3S,5^5R)-5^5-methyl-6-oxo-1^5-(trifluoromethyl)-3,7,11-trioxa-1(2,6)-pyridina-5(2,1)-pyrrolidina-2(1,4)-cyclohexanacycloundecaphane-5^3-yl)methanesulfonamide] |
| 95 | Cc1cc2nc(c1)C1CCC(CC1)OCC1[C@@H](NS(C)(=O)=O)C[C@@H](C)N1C(=O)OCCO2 (some centres unmarked) [Example 66, N-((2^1S,2^4S,5^2R,5^3S,5^5R)-1^4,5^5-dimethyl-6-oxo-3,7,10-trioxa-1(2,6)-pyridina-5(2,1)-pyrrolidina-2(1,4)-cyclohexanacyclodecaphane-5^3-yl)methanesulfonamide] |
| 98.5 | Cc1cc2nc(c1)C1CCC(CC1)OCC1[C@@H](NS(C)(=O)=O)C[C@@H](C)N1C(=O)OCCCO2 (some centres unmarked) [Example 67, N-((2^1S,2^4S,5^2R,5^3S,5^5R)-1^4,5^5-dimethyl-6-oxo-3,7,11-trioxa-1(2,6)-pyridina-5(2,1)-pyrrolidina-2(1,4)-cyclohexanacycloundecaphane-5^3-yl)methanesulfonamide] |
| 102 | C[C@@H]1C[C@H](NS(C)(=O)=O)C2COC3CCC(CC3)c3nc(ccc3C(F)(F)F)OCCOC(=O)N21 (some centres unmarked) [Example 68, N-((2^1S,2^4S,5^2R,5^3S,5^5R)-5^5-methyl-6-oxo-1^3-(trifluoromethyl)-3,7,10-trioxa-1(2,6)-pyridina-5(2,1)-pyrrolidina-2(1,4)-cyclohexanacyclodecaphane-5^3-yl)methanesulfonamide] |
| 94.7 | C[C@@H]1C[C@H](NS(C)(=O)=O)C2COC3CCC(CC3)c3nc(ccc3C(F)(F)F)OCCCOC(=O)N21 (some centres unmarked) [Example 69, N-((2^1S,2^4S,5^2R,5^3S,5^5R)-5^5-methyl-6-oxo-1^3-(trifluoromethyl)-3,7,11-trioxa-1(2,6)-pyridina-5(2,1)-pyrrolidina-2(1,4)-cyclohexanacycloundecaphane-5^3-yl)methanesulfonamide] |
| 102 | COc1cc2nc(c1)C1CCC(CC1)OCC1[C@@H](NS(C)(=O)=O)C[C@@H](C)N1C(=O)OCCO2 (some centres unmarked) [Example 70, N-((2^1S,2^4S,5^2R,5^3S,5^5R)-1^4-methoxy-5^5-methyl-6-oxo-3,7,10-trioxa-1(2,6)-pyridina-5(2,1)-pyrrolidina-2(1,4)-cyclohexanacyclodecaphane-5^3-yl)methanesulfonamide] |
| 102 | COc1cc2nc(c1)C1CCC(CC1)OCC1[C@@H](NS(C)(=O)=O)C[C@@H](C)N1C(=O)OCCCO2 (some centres unmarked) [Example 71, N-((2^1S,2^4S,5^2R,5^3S,5^5R)-1^4-methoxy-5^5-methyl-6-oxo-3,7,11-trioxa-1(2,6)-pyridina-5(2,1)-pyrrolidina-2(1,4)-cyclohexanacycloundecaphane-5^3-yl)methanesulfonamide] |
| 102 | C[C@@H]1C[C@H](NS(C)(=O)=O)C2COC3CCC(CC3)c3ccc(OC(F)(F)F)c(n3)OCCOC(=O)N21 (some centres unmarked) [Example 72, N-((2^1S,2^4S,5^2R,5^3S,5^5R)-5^5-methyl-6-oxo-1^5-(trifluoromethoxy)-3,7,10-trioxa-1(2,6)-pyridina-5(2,1)-pyrrolidina-2(1,4)-cyclohexanacyclodecaphane-5^3-yl)methanesulfonamid] |
| 100 | C[C@@H]1C[C@H](NS(C)(=O)=O)C2COC3CCC(CC3)c3ccc(OC(F)(F)F)c(n3)OCCCOC(=O)N21 (some centres unmarked) [Example 73, N-((2^1S,2^4S,5^2R,5^3S,5^5R)-5^5-methyl-6-oxo-1^5-(trifluoromethoxy)-3,7,11-trioxa-1(2,6)-pyridina-5(2,1)-pyrrolidina-2(1,4)-cyclohexanacycloundecaphane-5^3-yl)methanesulfonamide] |
| 97.2 | COc1cc2nc(c1F)OCCCOC(=O)N1C(COC3CCC2CC3)[C@@H](NS(C)(=O)=O)C[C@H]1C (some centres unmarked) [Example 75, N-((2^1S,2^4S,5^2R,5^3S,5^5R)-1^4-fluoro-1^3-methoxy-5^5-methyl-6-oxo-3,7,11-trioxa-1(2,6)-pyridina-5(2,1)-pyrrolidina-2(1,4)-cyclohexanacycloundecaphane-5^3-yl)methane sulfonamide] |
| 101 | COc1ccc2nc1OCCCOC(=O)N1C(COC3CCC2CC3)[C@@H](NS(C)(=O)=O)C[C@H]1C (some centres unmarked) [Example 76, N-((2^1S,2^4S,5^2R,5^3S,5^5R)-1^5-methoxy-5^5-methyl-6-oxo-3,7,11-trioxa-1(2,6)-pyridina-5(2,1)-pyrrolidina-2(1,4)-cyclohexanacycloundecaphane-5^3-yl)methanesulfonamide] |
| 99.5 | CCOc1cc2nc(c1)C1CCC(CC1)OCC1[C@@H](NS(C)(=O)=O)C[C@@H](C)N1C(=O)OCCO2 (some centres unmarked) [Example 77, N-((2^1S,2^4S,5^2R,5^3S,5^5R)-1^4-ethoxy-5^5-methyl-6-oxo-3,7,10-trioxa-1(2,6)-pyridina-5(2,1)-pyrrolidina-2(1,4)-cyclohexanacyclodecaphane-5^3-yl)methanesulfonamide] |
| 100 | CCOc1cc2nc(c1)C1CCC(CC1)OCC1[C@@H](NS(C)(=O)=O)C[C@@H](C)N1C(=O)OCCCO2 (some centres unmarked) [Example 78, N-((2^1S,2^4S,5^2R,5^3S,5^5R)-1^4-ethoxy-5^5-methyl-6-oxo-3,7,11-trioxa-1(2,6)-pyridina-5(2,1)-pyrrolidina-2(1,4)-cyclohexanacycloundecaphane-5^3-yl)methanesulfonamide] |
| 99.4 | Cc1ccc2nc1C1CCC(CC1)OCC1[C@@H](NS(C)(=O)=O)C[C@@H](C)N1C(=O)OCCCO2 (some centres unmarked) [Example 80, N-((2^1S,2^4S,5^2R,5^3S,5^5R)-1^3,5^5-dimethyl-6-oxo-3,7,11-trioxa-1(2,6)-pyridina-5(2,1)-pyrrolidina-2(1,4)-cyclohexanacycloundecaphane-5^3-yl)methanesulfonamide] |
| 104 | C[C@@H]1C[C@H](NS(C)(=O)=O)C2COC3CCC(CC3)c3nc(c(F)cc3F)OCCCOC(=O)N21 (some centres unmarked) [Example 81, N-((2^1S,2^4S,5^2R,5^3S,5^5R)-1^3,1^5-difluoro-5^5-methyl-6-oxo-3,7,11-trioxa-1(2,6)-pyridina-5(2,1)-pyrrolidina-2(1,4)-cyclohexanacycloundecaphane-5^3-yl)methanesulfonamide] |
| 102 | COC[C@@H]1C[C@H](NS(C)(=O)=O)C2COC3CCC(CC3)c3cc(C(F)(F)F)cc(n3)OCCCOC(=O)N21 (some centres unmarked) [Example 83, N-((2^1S,2^4S,5^2R,5^3S,5^5S)-5^5-(methoxymethyl)-6-oxo-1^4-(trifluoromethyl)-3,7,11-trioxa-1(2,6)-pyridina-5(2,1)-pyrrolidina-2(1,4)-cyclohexanacycloundecaphane-5^3-yl)methanesulfonamide] |
